Laboratory results from ChEMBL document CHEMBL5608168, “An overview of PROTACs targeting MDM2 as a novel approach for cancer therapy” (Eur J Med Chem, 2024).

Experiments:
[1] = system: A549; test: Induction of apoptosis in human A549 cells assessed as apoptotic rate at 5 uM incubated for 24 hrs by Annexin V-FITC staining based flow cytometry relative to control; type: functional
[2] = Terminal half life in Sprague-Dawley rat at 2 mg/kg, iv by LC-MS/MS analysis; type: ADME, organism-based; conditions: in vivo
[3] = system: A549; test: Antitumor activity against human A549 cells xenografted in BALB/c nude mouse assessed as tumor growth inhibition at 30 mg/kg, ip administered twice daily for 21 days relative to control; type: functional; conditions: A549, 504 h, time 21 day, read-out: TGI
[4] = system: A549; test: Anticancer activity against human A549 cells assessed as reduction in cell growth incubated for 72 hrs by CCK-8 assay; type: functional, cell-based; conditions: A549, 72 h
[5] = Antiproliferative activity against human Triple-negative breast cancer cell; type: functional, cell-based; conditions: Breast carcinoma cell
[6] = Metabolic stability in mouse liver microsomes assessed as half life; type: ADME, Microsome
[7] = biological target: E3 ubiquitin-protein ligase Mdm2 (Homo sapiens, UniProt Q00987); test: Homo-PROTAC activity at MDM2 in human A549 cells assessed as self ubiquitination mediated protein degradation by Western Blot analysis; type: cell-based
Sequence of E3 ubiquitin-protein ligase Mdm2 (Q00987 whole entry): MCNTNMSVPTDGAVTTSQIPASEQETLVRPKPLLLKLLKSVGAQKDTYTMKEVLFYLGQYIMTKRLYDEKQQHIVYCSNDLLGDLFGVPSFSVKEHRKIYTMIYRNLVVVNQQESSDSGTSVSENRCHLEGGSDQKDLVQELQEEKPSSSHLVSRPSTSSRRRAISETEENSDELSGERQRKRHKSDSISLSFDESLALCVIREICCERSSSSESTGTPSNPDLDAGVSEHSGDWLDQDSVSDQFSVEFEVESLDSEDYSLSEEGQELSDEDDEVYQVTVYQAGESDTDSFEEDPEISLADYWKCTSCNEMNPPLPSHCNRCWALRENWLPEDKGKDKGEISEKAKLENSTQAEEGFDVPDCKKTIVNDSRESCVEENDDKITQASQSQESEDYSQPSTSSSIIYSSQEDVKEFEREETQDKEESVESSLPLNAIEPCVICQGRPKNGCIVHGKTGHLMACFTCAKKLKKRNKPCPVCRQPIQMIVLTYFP

[8] = system: MOLM-13; test: Antiproliferative activity against human MOLM-13 assessed as reduction in cell viability; type: functional, cell-based
[9] = Antiproliferative activity against human derived Acute myeloid leukemic cells assessed as reduction in cell viability incubated for 48 hr by CellTiter-Glo assay; type: functional, cell-based; conditions: Leukemia cell

With `C[C@H]1[C@H](C)CC[C@]2(C(=O)NCCOCCOCCOCCNc3cccc4c3C(=O)N(C3CCC(=O)NC3=O)C4=O)CC[C@]3(C)C(=CC[C@@H]4[C@@]5(C)CC[C@H](O)C(C)(C)[C@@H]5CC[C@]43C)[C@H]12` (some centres undefined) the Activity [1] was 26.74%.
In the case of `CCOc1cc(C(C)(C)C)ccc1C1=N[C@@H](c2ccc(Cl)cc2)[C@@H](c2ccc(Cl)cc2)N1C(=O)N1CCN(CC(=O)NCCOCCOCCOCCNC(=O)CN2CCN(C(=O)N3C(c4ccc(C(C)(C)C)cc4OCC)=N[C@@H](c4ccc(Cl)cc4)[C@H]3c3ccc(Cl)cc3)CC2=O)C(=O)C1`, the “beta t1/2” value [2] is reported as 576 min, the inhibition in vivo at 30 mg/kg [3] is reported as 52.4% and the IC50 [4] is reported as 580 nM.
With `CCOc1cc(C(C)(C)C)ccc1C1=N[C@@](C)(c2ccc(Cl)cc2)[C@@](C)(c2ccc(Cl)cc2)N1C(=O)N1CCN(CC(=O)NCCOCCOCCOCC(=O)N[C@H](C(=O)N2C[C@H](O)C[C@H]2C(=O)NCc2ccc(-c3scnc3C)cc2)C(C)(C)C)CC1` the IC50 [5] was 4000 nM and the half-life [6] was 25.9 min.
Work on `CCOc1cc(C(C)(C)C)ccc1C1=NC(c2ccc(Cl)cc2)C(c2ccc(Cl)cc2)N1C(=O)N1CCN(CC(=O)NCCOCCOCCOCCNC(=O)CN2CCN(C(=O)N3C(c4ccc(C(C)(C)C)cc4OCC)=NC(c4ccc(Cl)cc4)C3c3ccc(Cl)cc3)CC2=O)C(=O)C1` (racemic) yielded a DC50 [7] of 1010 nM.
Compound `Cc1ncsc1-c1ccc(CNC(=O)[C@@H]2C[C@@H](O)CN2C(=O)[C@@H](NC(=O)CCCCCCCCC(=O)N2CCN(S(=O)(=O)C[C@@H](N3C(=O)[C@@](C)(CC(=O)O)C[C@H](c4cccc(Cl)c4)[C@H]3c3ccc(Cl)cc3)C(C)(C)C)CC2)C(C)(C)C)cc1` has an IC50 [8] of 50 nM and an IC50 [9] of 40 nM.
